Data taken from patent publication US7556807B2, “Signal peptides, nucleic acid molecules and methods for treatment of caries” (priority 2001, dated 2009).
Entries after “also recorded” stand apart in the source; their conditions may differ. No end group written: not given here.

Columns and labels:
[1] = test system: S. mutans wild-type UA159; assay: S. mutans acid resistance assay (growth in THYE at pH 7.5 and pH 5.5); format: cell-based, Streptococcus mutans; details: 5 μg/ml of peptide analog; for Growth (pH 7.5): THYE pH 7.5; for Acid resistance (pH 5.5): growth in THYE pH 5.5
Experimental: The effect of peptides on acid tolerance was evaluated by assessment of growth in THYE at pH 7.5 and pH 5.5. Overnight S. mutans wild-type UA159 cells were diluted (1:20) with prewarmed THYE broth and incubated at 37° C. in air with 5% CO2 until an OD600 of approximately 0.4 was reached. A 20-fold dilution was made into 400 μl of either THYE pH 7.5 or THYE pH 5.5 broth containing different concentrations (0, 0.1, 0.5, 2, and 5 μg per ml) of peptide analogs and added in the individual wells of a 100-well Bioscreen C plate in triplicate. Wells without cells were used as blank controls. A Bioscreen microbiology reader (Labsystems, Helsinki, Finland) was employed to continuously grow cells and measure cell growth for 16 h at 37° C. Measurements were taken every 20 min with shaking to prevent cell aggregation.

[2] = test system: S. mutans wild-type UA159; assay: S. mutans biofilms formed on polystyrene microtiter plates (b), SDM-glucose, safranin (first study); format: cell-based, Streptococcus mutans; details: 5 μg/ml of peptide analog; ↓ = reduced biomass compared to biofilm grown in presence of wild-type CSP
Experimental: Biofilms were developed in 96-well polystyrene microtiter plates. […] Wells without cells were used as blank controls. […] After the incubation, the planktonic cells were carefully removed and the plates were air dried overnight. The plates were then stained with 0.01% (wt/vol) safranin for 10 min, rinsed with sterile distilled water and air dried. Biofilms were quantified by measuring the absorbance of stained biofilms at 490 nm with a microplate reader (model 3550; Bio-Rad Laboratories, Richmond, Calif.).

[3] = test system: S. mutans wild-type UA159; assay: S. mutans competence assay (genetic transformation with plasmid pDL289); format: cell-based, Streptococcus mutans; details: 5 μg/ml of peptide analog; for Transformation efficiency (vs no CSP): compared with natural transformation without exogenous CSP, 'no effect' = no significant difference by comparison with CSP; for Transformation efficiency (vs 5 μg CSP): compared with wild-type S. mutans CSP (5 μg CSP)
Experimental: To determine if the peptide analogs had any impact on the development of genetic competence, S. mutans UA159 wild-type cells were assayed for genetic transformation. Overnight cultures of S. mutans UA159 were diluted (1:20) with prewarmed THYE broth and incubated at 37° C. in air with 5% CO2 until an optical density (OD) of approximately 0.1 at 600 nm was reached. The culture was then divided into six aliquots containing 1 μg/ml of plasmid pDL289 and different concentrations (0, 0.1, 0.5, 2, and 5 μg per ml) of peptide analogs. The cultures were incubated at 37° C. in air with 5% CO2 for 2.5 h, gently sonicated for 10 s to disperse the streptococcal chains, and spread on THYE plates containing kanamycin. Plates were incubated at 37° C. in air with 5% CO2 for 48 h. Total recipient cells were counted by spreading serial dilutions on THYE agar plates without antibiotic. Transformation efficiency was expressed as the percentage of kanamycin resistant transformants over the total number of recipient cells.

S. oralis = assay: Growth and biofilm formation on polystyrene microtiter plates, crystal violet; format: cell-based, Streptococcus oralis; details: for Biofilm formation: additional studies
Experimental: (§1) They were grown in Todd-Hewitt broth containing 0.3% yeast extract (THYE) at pH 5.5 or 7.5. […] In liquid media, cultures were incubated in closed screw-cap tubes without agitation at 37° C. in an anaerobic chamber (5% CO2).
(§2) Wells without cells were used as blank controls.

S. gordonii = assay: as above; format: cell-based, Streptococcus gordonii; details: for Biofilm formation: additional studies
Experimental: as §1, §2

S. sobrinus = assay: as above; format: cell-based, Streptococcus sobrinus; details: for Biofilm formation: additional studies
Experimental: as §1, §2

S. pneumoniae = assay: as above; format: cell-based, Streptococcus pneumoniae; details: for Biofilm formation: additional studies
Experimental: as §1, §2

S. sanguis = assay: as above; format: cell-based, Streptococcus sanguis; details: for Biofilm formation: additional studies
Experimental: as §1, §2

S. mitis = assay: as above; format: cell-based, Streptococcus mitis; details: for Biofilm formation: additional studies
Experimental: as §1, §2

[4] = test system: mixed culture of the above Streptococcus spp.; assay: Mixed culture biofilm formation; format: cell-based; details: data not shown
Source text: as §2

Row | Substance | Growth (pH 7.5) [1] | Acid resistance (pH 5.5) [1] | Bioflim formation (SDM-glucose) [2] | other results
1 | A2: S. mutans CSP analog, 5th residue removed from C′ (SGSLSTFFRLFNASFTQALGK; E2 peptide analog) | no effect | significant decrease in cell growth | no effect | –
2 | B1: S. mutans CSP analog, 2nd residue removed from N′ (SGSLSTFFRLFNRSFTQALK; F1 peptide analog) | ↓growth | growth | no effect | Transformation efficiency (vs no CSP) [3]: no effect; Transformation efficiency (vs 5 μg CSP) [3]: no significant effect
3 | C1: S. mutans CSP analog, 3rd residue removed from N′ (SGSLSTFFRLFNRSFTQAGK; G1 peptide analog) | ↓growth | growth | no effect | Transformation efficiency (vs no CSP) [3]: no effect; Transformation efficiency (vs 5 μg CSP) [3]: no significant effect
4 | D1: S. mutans CSP analog, 4th residue removed from N′ (SGSLSTFFRLFNRSFTQLGK; H1 peptide analog) | ↓growth | growth | no effect | –
5 | E1: S. mutans CSP analog, 5th residue removed from N′ (SGSLSTFFRLFNRSFTALGK; A2 peptide analog) | ↓growth | growth | no effect | –
6 | F1: S. mutans CSP analog, 2nd residue removed from C′ (SGSLSTFFVLFNRSFTQALGK; B2 peptide analog) | diminution of cell growth | diminution of cell growth | – | Biofilm formation (S. oralis): significantly reduce biofilm formation; Biofilm formation (S. gordonii): significantly reduce biofilm formation; Biofilm formation (S. sobrinus): significantly reduce biofilm formation; Biofilm formation (S. pneumoniae): significantly reduce biofilm formation; Biofilm formation (S. sanguis): significantly reduce biofilm formation; Biofilm formation (S. mitis): significantly reduce biofilm formation
7 | G1: S. mutans CSP analog, 3rd residue removed from C′ (SGSLSTFFALFNRSFTQALGK; C2 peptide analog) | ↓growth | growth | – | –
8 | IH-1: S. mutans CSP analog, 1st residue removed from N′ (SGSSTFFRLFNRSFTQALGK; D1 peptide analog) | ↓growth | growth | no effect | Transformation efficiency (vs no CSP) [3]: no effect^a; Transformation efficiency (vs 5 μg CSP) [3]: no significant effect
9 | IH-2: S. mutans CSP analog, 1st residue removed from C′ (SGSLTFFRLFNRSFTQALGK; E1 peptide analog) | ↓growth | growth | no effect | Transformation efficiency (vs no CSP) [3]: no effect; Transformation efficiency (vs 5 μg CSP) [3]: no significant effect
10 | SGSLSTFFALFNRSFTQALGK (SGSLSTFFRLFNRSFTQALGA; G2 peptide analog) [C2, S. mutans CSP analog, substitution of 1st R residue with A] | no effect | significant decrease in cell growth | no effect | Biofilm formation (S. oralis): significantly reduce biofilm formation; Biofilm formation (S. gordonii): significantly reduce biofilm formation; Biofilm formation (S. sobrinus): significantly reduce biofilm formation; Biofilm formation (S. pneumoniae): significantly reduce biofilm formation; Biofilm formation (S. sanguis): significantly reduce biofilm formation; Biofilm formation (S. mitis): significantly reduce biofilm formation
11 | SGSLSTFFRLFNASFTQALGK [E2] | no effect; also recorded: without affecting the cell growth | significant decrease in cell growth; also recorded: inhibited cell growth | – | Growth (S. oralis; 5 μg/ml): inhibitory effects; Biofilm formation (S. oralis): significantly reduce biofilm formation; Growth (S. gordonii; 5 μg/ml): inhibitory effects; Biofilm formation (S. gordonii): significantly reduce biofilm formation; Growth (S. sobrinus; 5 μg/ml): inhibitory effects; Biofilm formation (S. sobrinus): significantly reduce biofilm formation; Growth (S. pneumoniae; 5 μg/ml): inhibitory effects; Biofilm formation (S. pneumoniae): significantly reduce biofilm formation; Mixed culture biofilm formation [4]: significant inhibitory effect; Growth (S. sanguis; 5 μg/ml): inhibitory effects; Biofilm formation (S. sanguis): significantly reduce biofilm formation; Growth (S. mitis; 5 μg/ml): inhibitory effects; Biofilm formation (S. mitis): significantly reduce biofilm formation
12 | SGSLSTFFRLFNRSFTQALGA [G2, S. mutans CSP analog, substitution of K residue with A] | diminution of cell growth | diminution of cell growth | – | –
13 | SGSLSTFFRLFNRSFTQALGV [F2, S. mutans CSP analog, substitution of K residue with V] | diminution of cell growth | diminution of cell growth | – | –
14 | SGSLSTFFRLFNVSFTQALGK [D2, S. mutans CSP analog, substitution of 2nd R residue with V] | no effect | significant decrease in cell growth | no effect | –
15 | SGSLSTFFVLFNRSFTQALGK (SGSLSTFFRLFNRSFTQALGV; F2 peptide analog) [B2, S. mutans CSP analog, substitution of 1st R residue with V] | no effect | significant decrease in cell growth | no effect | –
16 | SGTLSTFFRLFNRSFTQALGK [B3] | no effect | significant decrease in cell growth | – | Biofilm formation (S. oralis): significantly reduce biofilm formation; Biofilm formation (S. gordonii): significantly reduce biofilm formation; Biofilm formation (S. sobrinus): significantly reduce biofilm formation; Biofilm formation (S. pneumoniae): significantly reduce biofilm formation; Biofilm formation (S. sanguis): significantly reduce biofilm formation; Biofilm formation (S. mitis): significantly reduce biofilm formation
